Molecular target: T1, hMC2 receptor (crude hMC2R membranes from CRE-bla-CHO-K1 cells stably expressing hMC2 receptor and hMRAP accessory protein) (Homo sapiens, UniProt Q01718)
T1 construct: crude membrane fractions
Test: hMC2 membrane binding assay ([125I]ACTH (1-39) Tyr23, SPA)
Conditions: displacement of 0.2 nM [125I]ACTH (1-39) Tyr23 from hMC2R membranes, 1.5 hours at room temperature; read-out: MC2R binding potency
Summary of the method: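 Crude membranes from CRE-bla-CHO-K1 cells stably co-expressing hMC2R and hMRAP, premixed with WGA PVT SPA beads in pH 7.4 HEPES buffer (5 mM MgCl2, 1 mM CaCl2, 0.20% BSA, protease inhibitors). Compounds compete with [125I]ACTH(1-39) Tyr23, read by scintillation. Ki from non-linear regression.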

T1 sequence (Q01718 whole entry): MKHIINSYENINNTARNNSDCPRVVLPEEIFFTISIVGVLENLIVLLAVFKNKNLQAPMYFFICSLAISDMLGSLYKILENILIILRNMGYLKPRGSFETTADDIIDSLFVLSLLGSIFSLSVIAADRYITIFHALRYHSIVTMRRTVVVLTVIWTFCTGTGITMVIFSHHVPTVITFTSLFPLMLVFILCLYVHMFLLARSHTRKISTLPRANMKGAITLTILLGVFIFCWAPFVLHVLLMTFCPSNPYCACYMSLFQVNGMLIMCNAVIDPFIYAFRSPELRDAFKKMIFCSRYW
T1 sequence (Q8TCY5 whole entry partner): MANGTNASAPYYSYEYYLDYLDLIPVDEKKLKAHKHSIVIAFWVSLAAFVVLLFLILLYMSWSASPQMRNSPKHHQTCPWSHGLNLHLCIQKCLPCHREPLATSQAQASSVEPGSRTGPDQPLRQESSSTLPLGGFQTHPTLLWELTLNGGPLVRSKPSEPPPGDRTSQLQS

Row | Structure (SMILES) | Ki [µM]
1 | COc1ccccc1-c1ccc(C2(C(=O)NC[C@H]3CCN3C)CCN(c3ccc(C(F)(F)F)cc3C#N)CC2)cn1 [Compound 1-244, 1-[2-cyano-4-(trifluoromethyl)phenyl]-4-[6-(2-methoxyphenyl)pyridin-3-yl]-N-{[(2R)-1-methylazetidin-2-yl]methyl}piperidine-4-carboxamide] | < 0.01
2 | COc1ccccc1-c1ccc(C2(C(=O)N[C@@H]3CN(C)C[C@@H]3F)CCN(c3ccc(C(F)(F)F)cc3C#N)CC2)cn1 [Compound 1-242, 1-[2-cyano-4-(trifluoromethyl)phenyl]-N-[(3R,4S)-4-fluoro-1-methylpyrrolidin-3-yl]-4-[6-(2-methoxyphenyl)pyridin-3-yl]piperidine-4-carboxamide] | < 0.01
3 | CNC[C@H](C)NC(=O)C1(c2ccc(-c3cccnc3OC)nc2)CCN(c2ccc(C(F)(F)F)cc2Cl)CC1 [Compound 1-307, 1-[2-chloro-4-(trifluoromethyl)phenyl]-4-{2′-methoxy-[2,3′-bipyridin]-5-yl}-N-[(2S)-1-(methylamino)propan-2-yl]piperidine-4-carboxamide] | < 0.01
4 | CCOc1ncccc1-c1ccc(C2(NC(=O)[C@@H]3CCCN3C)CCN(c3ccc(C(F)(F)F)cc3C#N)CC2)cc1 [Compound 2-11, (2S)—N-{1-[2-cyano-4-(trifluoromethyl)phenyl]-4-[4-(2-ethoxypyridin-3-yl)phenyl]piperidin-4-yl}-1-methylpyrrolidine-2-carboxamide] | 0.01 to 0.1
5 | CCOc1ncccc1-c1ccc(C2(NC(=O)[C@H]3CCN(C)C3)CCN(c3ccc(Cl)cc3C#N)CC2)cn1 [Compound 2-39, (3S)—N-[1-(4-chloro-2-cyanophenyl)-4-{2′-ethoxy-[2,3′-bipyridin]-5-yl}piperidin-4-yl]-1-methylpyrrolidine-3-carboxamide] | < 0.01

— US12492181B2, “Gem-disubstituted piperidine melanocortin subtype-2 receptor (MC2R) antagonists and uses thereof” (Crinetics Pharmaceuticals, Inc., priority 2019, dated 2025)
